Positions of bridges follow the written chain, without caps; N, C: chain ends. No end group written: not given here. FeTCPP = ferriporphyrin at the N-terminus; CAA = cis-aconitic anhydride moiety
Legend:
[1] = test system: MCF-7/MDR xenograft tumors; assay: In vivo antitumor evaluation in MCF-7/MDR xenografted model; conditions: for mean tumor volume at 20 days post injection / TGI rate: MCF-7/MDR xenograft, Gi-F-CAA 8 mg/kg, DOX and CPT 3 mg/kg; for mean tumor volume at 20 days post injection: six i.v. injections every 2 days, n = 6; for TGI rate: six i.v. injections, 20 days
Description: Female BALB/c nude mice (~8 weeks, 18 g) were subcutaneously inoculated with 5 × 10^6 MCF-7/MDR cells resuspended in Matrigel. […] Individual tumor volume and bodyweight of mouse after different treatment was collected at 2-days intervals for analysis. Mice were killed at 20 days post treatment unless endpoints were exceeded. Moreover, tumors from all groups were harvested under euthanasia and weighed for analysis at the end of treatment.

786-O xenograft tumors = assay: In vivo antitumor evaluation in large tumor model (786-O); design: species or system BALB/c nude mice; conditions: six i.v. injections at 2-days intervals, Gi-F-CAA 8 mg/kg, Bevacizumab 5 mg/kg
GPX4mu = conditions: one-to-one binding; ref Biochemical and Biophysical Research Communications. 2017, 482, 195e201; cited from earlier work
Protocol: page 12: Figure 9. […] The manuscript was revised accordingly. […] More explanation on this may be helpful. For instance, why small molecule inhibitors of GPX4 were not used? I suppose small molecules may penetrate tumor better since they are smaller. Beside ... || page 14: calculation of apparent Kd was added in the method section. Specifically, nanoparticles provide large surface area with exposed GPX4 target to achieve multivalent binding, which could remarkably enhance the binding affinity. This concept has been proven by several papers (Adv. Mater. 2023,35, 2211332; Adv Mater, 2023, doi: 10.1002/adma.202303831). […] Biophys. Res.

GPX4 [2] = conditions: ref Biochemical and Biophysical Research Communications. 2017, 482, 195e201, cited from earlier work; for GPX4 inhibitory effect at 100 μM: even at 100 μM
Description: page 12: Figure 9. […] The manuscript was revised accordingly. […] More explanation on this may be helpful. For instance, why small molecule inhibitors of GPX4 were not used? I suppose small molecules may penetrate tumor better since they are smaller. Beside ...

ζ-potential in PBS = format: physicochemical; conditions: 40 μM in PBS, pH 7.4; mean of n = 3
Protocol: Supplementary Fig. 12. ζ-potential change of Gi-F-CAA (40 μM) in PBS (0.01 M, pH 7.4 or 6.5) (n=3
experimental repeats). Experiment was independently repeated three times with similar results. Values are
(1 picture or pasted object on this page, not shown here)
Supplementary Fig. 13. ζ-potential of NGi-F-CAA, Gi-F and Gi-F-SA (pH 7.4) (40 μM) in PBS (n=3

EJ cells [3] = assay: Cytotoxicity assay (CCK-8) on EJ cells
Protocol: Initially, EJ cells were seeded into 96 well plates at a density of 5 × 10^3 per well and incubated in a CO2 incubator overnight at 37 °C. Subsequently, Gi-F (pH = 7.4), Gi-F-SA (pH = 7.4), NGi-F-CAA (pH = 7.4), NGi-F-CAA (pH = 6.5), Gi-F-CAA (pH = 7.4) and Gi-F-CAA (pH = 6.5) at different concentrations (1, 2, 4, 8, 16, 32, 64, 128 and 256 μM) was added to the cells and further incubated for 48 h. Finally, the cell viability rate was calculated by (Sample wells-Blank wells)/(Control wells-Blank wells) × 100%.

EJ cells [4] = assay: Intracellular GSH content detection; format: cell-based
Protocol: Initially, EJ cells (5 × 10^5) were cultured in 6-well plate with a CO2 incubator overnight at 37 °C. […] Next, EJ cells were collected and washed with PBS for 3 times. Afterwards, the cell lysates were collected by centrifugation at 8000 g for 10 min at 4 °C after lysed by freeze-thaw treatment. Finally, the GSH contents were measured with a GSH Assay Kit based on the manufacturer’s instructions.

EJ cells [5] = assay: Intracellular Fe2+ ions detection; format: cell-based
Protocol: Initially, EJ cells (5 × 10^5) were cultured in confocal dish with a CO2 incubator overnight at 37 °C. […] Afterwards, EJ cells were washed with PBS for 3 times and replaced with culture mediums.

EJ cells [6] = assay: Intracellular LPO content (MDA kit); format: cell-based
Protocol: Initially, EJ cells (5 × 10^5) were cultured in 6-well plate with a CO2 incubator overnight at 37 °C. […] Next, EJ cells were collected and washed with PBS for 3 times. Afterwards, the cell lysates were collected by centrifugation at 8000 g for 10 min at 4 °C after lysed by freeze-thaw treatment. Finally, the LPO contents were measured by thiobarbituric acid (TBA) reaction with a Malondialdehyde (MDA) Assay Kit based on the manufacturer’s instructions.

GPX4 [7] = biological target: T1, GPX4 (Homo sapiens, UniProt P36969); assay: Intracellular GPX4 activity detection; format: cell-based; design: endogenous in cells; host or cells: EJ bladder cancer cells
T1 sequence (P36969 1-197): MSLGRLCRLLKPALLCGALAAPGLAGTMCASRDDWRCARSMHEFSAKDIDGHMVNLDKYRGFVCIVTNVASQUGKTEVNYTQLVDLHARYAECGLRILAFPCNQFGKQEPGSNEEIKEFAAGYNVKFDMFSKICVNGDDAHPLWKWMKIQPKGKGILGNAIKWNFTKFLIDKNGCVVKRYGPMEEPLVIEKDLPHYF
Protocol: Initially, EJ cells (5 × 10^5) were cultured in 6-well plate with a CO2 incubator overnight at 37 °C. […] Next, EJ cells were collected and washed with PBS for 3 times. Afterwards, the cell lysates were collected by centrifugation at 5000 rpm for 10 min at 4 °C after ultrasonic lysis in an ice bath. Finally, the GPX4 activity were measured with a GPX Assay Kit based on the manufacturer’s instructions.

Gi-F-CAA = biological target: T2, Gi-F-CAA (synthetic construct, disulfide 9-17 (inferred)); assay: MST
T2 chain: FeTCPP-LKLKLK(CAA)GACNWLPLYPCPV

NGi-F-CAA = biological target: T3, NGi-F-CAA (synthetic construct, cysteine pairing not given here; also: cis-aconitic anhydride on Lys); assay: MST
T3 chain: FeTCPP-LKLKLK(CAA)GACLNWPYLPCPV

Gi-F nanoparticle = biological target: T4, Gi-F nanoparticle (synthetic construct, disulfide 9-17 (inferred); also: self-assembled nanoparticle); assay: MST
T4 chain: FeTCPP-LKLKLKGACNWLPLYPCPV

CC[C@@]1(O)C(=O)OCc2c1cc1n(c2=O)Cc2cc3ccccc3nc2-1 [CPT]
mean tumor volume at 20 days post injection [1]: 1095 mm^3 | TGI rate [1]: 39% | Tumor weight ([1]; mice 1): 0.95 g | Tumor weight ([1]; mice 2): 0.87 g | Tumor weight ([1]; mice 3): 1 g | Tumor weight ([1]; mice 4): 0.65 g | Tumor weight ([1]; mice 5): 0.9 g | Tumor weight ([1]; mice 6): 0.74 g

COc1cccc2c1C(=O)c1c(O)c3c(c(O)c1C2=O)C[C@@](O)(C(=O)CO)C[C@@H]3O[C@H]1C[C@H](N)[C@H](O)[C@H](C)O1 [DOX]
mean tumor volume at 20 days post injection [1]: 1082 mm^3 | TGI rate [1]: 32% | Tumor weight ([1]; mice 1): 0.73 g | Tumor weight ([1]; mice 2): 1.18 g | Tumor weight ([1]; mice 4): 0.93 g | Tumor weight ([1]; mice 6): 0.69 g

Bevacizumab: clinical antitumor drug Avastin (Bevacizumab) [reference compound]
tumor volume course in large tumors (~500 mm^3) (786-O xenograft tumors): temporary retarded growth and got out of control thereafter

CRAWYQNYCALRR [GXpep-2]
Kd (GPX4mu): 0.61 µM | GPX4 inhibitory effect at 100 μM (GPX4 [2]): did not have an inhibitory effect

CRVDLQGWRRCRR [GXpep-1]
Kd (GPX4mu): 1.8 µM | GPX4 inhibitory effect at 100 μM (GPX4 [2]): did not have an inhibitory effect

FeTCPP-LKLKLK(CAA)GACLNWPYLPCPV (disulfide) [NGi-F-CAA]
Zeta potential (mV) (ζ-potential in PBS): -26.8 mV | IC50 (EJ cells [3]; pH 6.5): 111 µM | IC50 (EJ cells [3]; pH 7.4): 155 µM | Relative GSH levels (EJ cells [4]; pH=7.4, replicate #1): 0.912 | Relative GSH levels (EJ cells [4]; pH=7.4, replicate #2): 0.883 | Relative GSH levels (EJ cells [4]; pH=7.4, replicate #3): 1.029 | intracellular Fe^2+ (FerroOrange fluorescence), pH 7.4 (EJ cells [5]; EJ cells, pH 7.4, 8 h): no remarkable fluorescence | Concentrations of Fe2+ ions (EJ cells [5]; pH=7.4, replicate #1): 17.875 ng/104cells | Concentrations of Fe2+ ions (EJ cells [5]; pH=7.4, replicate #2): 15.309 ng/104cells | Concentrations of Fe2+ ions (EJ cells [5]; pH=7.4, replicate #3): 13.004 ng/104cells | Relative MDA levels (EJ cells [6]; pH=7.4, replicate #1): 0.76 | Relative MDA levels (EJ cells [6]; pH=7.4, replicate #2): 1.04 | Relative MDA levels (EJ cells [6]; pH=7.4, replicate #3): 1.44 | Relative activity of GPX4 (GPX4 [7]; EJ cells, 8 h, pH 7.4, PBS group normalized as 1, #1): 0.95 | Relative activity of GPX4 (GPX4 [7]; EJ cells, 8 h, pH 7.4, PBS group normalized as 1, #2): 0.9 | Relative activity of GPX4 (GPX4 [7]; EJ cells, 8 h, pH 7.4, PBS group normalized as 1, #3): 1.02 | Relative activity of GPX4 (GPX4 [7]; pH=7.4, replicate #1): 0.94 | Relative activity of GPX4 (GPX4 [7]; pH=7.4, replicate #2): 0.94 | Relative activity of GPX4 (GPX4 [7]; pH=7.4, replicate #3): 1

GACNWLPLYPCPV (disulfide 3-11 (inferred)) [GXpep-3]
Kd (GPX4mu): 8.2 µM | IC50 (GPX4 [2]; read-out: IC50, GPX4 inhibitory activity): 10 µM

B1: GPX4 (protein)
chain: SLGRLCRLLKPALLCGALAAPGLAGTMCASRDDWRCARSMHEFSAKDIDGHMVNLDKYRGFVCIVTNVASQUGKTEVNYTQLVDLHARYAECGLRILAFPCNQFGKQEPGSNEEIKEFAAGYNVKFDMFSKICVNGDDAHPLWKWMKIQPKGKGILGNAIKWNFTKFLIDKNGCVVKRYGPMEEPLVIEKDLPHYF
Kd (Gi-F-CAA): ~1.68 µM | Kd (NGi-F-CAA): ~17.6 µM | Kd (Gi-F nanoparticle): ~0.0303 µM
